Calls of active or inactive are those of the source. The rule behind the calls is not given here.

The test system of this data set is CCRIS mutagenicity, Ames/micronucleus/aberration tests. Briefly: CCRIS mutagenicity studies.
Setting [1] is: Test System: AMES SALMONELLA TYPHIMURIUM, Strain/Indicator: TA100, Metabolic Activation: NONE, Method: STANDARD PLATE.
Where [2] appears, read: Test System: AMES SALMONELLA TYPHIMURIUM, Strain/Indicator: TA98, Metabolic Activation: NONE, Method: PREINCUBATION
Setting [3] is: Test System: AMES SALMONELLA TYPHIMURIUM, Strain/Indicator: TA100, Metabolic Activation: NONE, Method: PREINCUBATION

On to `COc1cc(-c2oc3cc(O)cc(O)c3c(=O)c2O)ccc1O`, for which the mutagenic call (Test System: AMES SALMONELLA TYPHIMURIUM, Strain/Indicator: TA97, Metabolic Activation: NONE, Method: STANDARD PLATE) was “inactive; negative”; the mutagenic call (Test System: AMES SALMONELLA TYPHIMURIUM, Strain/Indicator: TA97, Metabolic Activation: RAT, LIVER, S-9, AROCLOR 1254, Method: STANDARD PLATE) was “inactive; negative”; the mutagenic call (Test System: AMES SALMONELLA TYPHIMURIUM, Strain/Indicator: TA98, Metabolic Activation: NONE, Method: STANDARD PLATE) is “inactive; negative”; the mutagenic call (Test System: AMES SALMONELLA TYPHIMURIUM, Strain/Indicator: TA98, Metabolic Activation: RAT, LIVER, S-9, AROCLOR 1254, Method: STANDARD PLATE) was “inactive; negative”; the mutagenic call under setting [1] is “inactive; negative”; the mutagenic call (Test System: AMES SALMONELLA TYPHIMURIUM, Strain/Indicator: TA100, Metabolic Activation: RAT, LIVER, S-9, AROCLOR 1254, Method: STANDARD PLATE) is “inactive; negative”. Further, the mutagenic call was “inactive; negative” (Test System: AMES SALMONELLA TYPHIMURIUM, Strain/Indicator: TA102, Metabolic Activation: NONE, Method: STANDARD PLATE); “inactive; negative” (Test System: AMES SALMONELLA TYPHIMURIUM, Strain/Indicator: TA102, Metabolic Activation: RAT, LIVER, S-9, AROCLOR 1254, Method: STANDARD PLATE); “inactive; negative” (Test System: AMES SALMONELLA TYPHIMURIUM, Strain/Indicator: TA1535, Metabolic Activation: NONE, Method: STANDARD PLATE); “inactive; negative” (Test System: AMES SALMONELLA TYPHIMURIUM, Strain/Indicator: TA1535, Metabolic Activation: RAT, LIVER, S-9, AROCLOR 1254, Method: STANDARD PLATE); “inactive; negative” (Test System: AMES SALMONELLA TYPHIMURIUM, Strain/Indicator: TA1538, Metabolic Activation: NONE, Method: STANDARD PLATE); “inactive; negative” (Test System: AMES SALMONELLA TYPHIMURIUM, Strain/Indicator: TA1538, Metabolic Activation: RAT, LIVER, S-9, AROCLOR 1254, Method: STANDARD PLATE).

`ClC(CBr)CBr`: the mutagenic call runs as follows: (Test System: AMES SALMONELLA TYPHIMURIUM, Strain/Indicator: TA100, Metabolic Activation: RAT, LIVER, MICROSOMES, PHENOBARBITAL, NADPH COFACTORS, Method: STANDARD PLATE) “active; positive”; (Test System: AMES SALMONELLA TYPHIMURIUM, Strain/Indicator: TA100, Metabolic Activation: RAT, LIVER, MICROSOMES, PHENOBARBITAL, Method: STANDARD PLATE) “inactive; negative”.

Consider `[N-]=[N+]=Nc1ccc2c(Nc3ccc(C(=O)O)cc3)c3ccccc3nc2c1`, for which the mutagenic call (Test System: AMES SALMONELLA TYPHIMURIUM, Strain/Indicator: TA1537, Metabolic Activation: NONE, Method: STANDARD PLATE) is “active; positive”.

Take `COC(=O)c1ccccc1N`: the mutagenic call (Test System: AMES SALMONELLA TYPHIMURIUM, Strain/Indicator: TA97, Metabolic Activation: NONE, Method: PREINCUBATION) is “inactive; negative”; the mutagenic call (Test System: AMES SALMONELLA TYPHIMURIUM, Strain/Indicator: TA97, Metabolic Activation: RAT, LIVER, S-9, AROCLOR 1254, Method: PREINCUBATION) was “inactive; negative”; the mutagenic call under setting [2] was “inactive; negative”; the mutagenic call (Test System: AMES SALMONELLA TYPHIMURIUM, Strain/Indicator: TA98, Metabolic Activation: S-9, Method: PREINCUBATION) was “inactive; negative”; the mutagenic call under setting [3] was “inactive; negative”; the mutagenic call (Test System: AMES SALMONELLA TYPHIMURIUM, Strain/Indicator: TA100, Metabolic Activation: S-9, Method: PREINCUBATION) is “inactive; negative”. For the same compound, the mutagenic call reads like this: (Test System: AMES SALMONELLA TYPHIMURIUM, Strain/Indicator: TA102, Metabolic Activation: NONE, Method: PREINCUBATION) “inactive; negative”; (Test System: AMES SALMONELLA TYPHIMURIUM, Strain/Indicator: TA102, Metabolic Activation: RAT, LIVER, S-9, AROCLOR 1254, Method: PREINCUBATION) “inactive; negative”; (Test System: UDS RODENT HEPATOCYTES, Strain/Indicator: THY INCORP (NON-S-PHASE), Metabolic Activation: NONE, Method: AUTORADIOGRAPHY) “inactive; negative”.

Take `[CH3][Pb]([CH3])([CH3])[CH3]`: the mutagenic call is, setting by setting: (Test System: AMES SALMONELLA TYPHIMURIUM, Strain/Indicator: TA98, Metabolic Activation: HAMSTER, LIVER, S-9, AROCLOR 1254, Method: PREINCUBATION) “inactive; negative”; under setting [2], “inactive; negative”; (Test System: AMES SALMONELLA TYPHIMURIUM, Strain/Indicator: TA98, Metabolic Activation: RAT, LIVER, S-9, AROCLOR 1254, Method: PREINCUBATION) “inactive; negative”; (Test System: AMES SALMONELLA TYPHIMURIUM, Strain/Indicator: TA100, Metabolic Activation: HAMSTER, LIVER, S-9, AROCLOR 1254, Method: PREINCUBATION) “inactive; negative”; under setting [3], “inactive; negative”; (Test System: AMES SALMONELLA TYPHIMURIUM, Strain/Indicator: TA100, Metabolic Activation: RAT, LIVER, S-9, AROCLOR 1254, Method: PREINCUBATION) “inactive; negative”. Besides, the mutagenic call (Test System: AMES SALMONELLA TYPHIMURIUM, Strain/Indicator: TA1535, Metabolic Activation: HAMSTER, LIVER, S-9, AROCLOR 1254, Method: PREINCUBATION) was “inactive; negative”; the mutagenic call (Test System: AMES SALMONELLA TYPHIMURIUM, Strain/Indicator: TA1535, Metabolic Activation: NONE, Method: PREINCUBATION) is “inactive; negative”; the mutagenic call (Test System: AMES SALMONELLA TYPHIMURIUM, Strain/Indicator: TA1535, Metabolic Activation: RAT, LIVER, S-9, AROCLOR 1254, Method: PREINCUBATION) was “inactive; negative”; the mutagenic call (Test System: AMES SALMONELLA TYPHIMURIUM, Strain/Indicator: TA1537, Metabolic Activation: HAMSTER, LIVER, S-9, AROCLOR 1254, Method: PREINCUBATION) was “inactive; negative”; the mutagenic call (Test System: AMES SALMONELLA TYPHIMURIUM, Strain/Indicator: TA1537, Metabolic Activation: NONE, Method: PREINCUBATION) is “inactive; negative”; the mutagenic call (Test System: AMES SALMONELLA TYPHIMURIUM, Strain/Indicator: TA1537, Metabolic Activation: RAT, LIVER, S-9, AROCLOR 1254, Method: PREINCUBATION) was “inactive; negative”.

As to `COP1(=S)OCc2ccccc2O1` (stereo not given), the mutagenic call by setting is: under setting [1], “active; positive”; (Test System: AMES SALMONELLA TYPHIMURIUM, Strain/Indicator: TA100, Metabolic Activation: S-9 MIX, Method: STANDARD PLATE) “active; positive”.

For the compound `CCOC(Cl)CCl` (stereo not given), the mutagenic call runs as follows: (End Point: IN VITRO CHROMOSOMAL ABERRATIONS, Test System: CHL CELLS, Metabolic Activation: NONE) “active; positive (structural and ploidy changes)”; (End Point: IN VITRO CHROMOSOMAL ABERRATIONS, Test System: CHL CELLS, Metabolic Activation: RAT, LIVER, S-9, SODIUM PHENOBARBITAL AND 5,6-BENZOFLAVONE) “active; positive (structural changes)”.

The values are drawn from PubChem BioAssay AID1259407 (Chemical Carcinogenesis Research Information System (CCRIS), 2018).
